Experimental data as given in US10525103B2, “Combined use of a vector encoding a modified receptor and its exogenous agonist in the treatment of seizures” (UCL BUSINESS LTD, priority 2014, dated 2020).
Like-named read-outs stand apart in the source and are kept apart here.

Columns and labels:
[1] = tested on: human muscarinic acetylcholine receptors mutated to DREADDs; conditions: cited from earlier work
[2] = cited from earlier work
[3] = human, in vivo; cited from earlier work
hM4Di [4] = biological target: T1, hM4Di (Homo sapiens, UniProt P08173, A203G/Y113C); experiment: Overview of hM4Di/CNO treatment in in vivo models of focal epilepsy
T1 sequence (P08173 1-479 Y113C/A203G): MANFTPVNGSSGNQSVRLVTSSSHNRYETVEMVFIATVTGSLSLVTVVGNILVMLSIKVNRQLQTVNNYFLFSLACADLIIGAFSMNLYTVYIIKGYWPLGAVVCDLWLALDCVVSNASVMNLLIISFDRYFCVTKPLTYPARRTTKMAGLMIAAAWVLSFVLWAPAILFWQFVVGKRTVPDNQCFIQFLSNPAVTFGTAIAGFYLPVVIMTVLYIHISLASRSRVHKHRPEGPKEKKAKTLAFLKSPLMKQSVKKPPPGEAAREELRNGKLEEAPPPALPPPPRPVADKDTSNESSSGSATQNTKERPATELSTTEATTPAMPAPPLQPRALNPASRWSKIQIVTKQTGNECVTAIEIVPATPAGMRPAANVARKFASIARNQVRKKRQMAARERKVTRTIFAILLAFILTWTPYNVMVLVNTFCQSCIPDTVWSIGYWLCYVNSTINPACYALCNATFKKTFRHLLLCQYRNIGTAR

hM4Di [5] = biological target: T1, hM4Di; parameters: host or cells: rat (Sprague-Dawley) primary motor cortex neurons transduced in vivo with AAV5, Camk2a promoter; conditions: in vivo
hM4Di [6] = biological target: T1, hM4Di; format: in vivo; parameters: host or cells: rat (Sprague-Dawley) primary motor cortex neurons transduced in vivo with AAV5, Camk2a promoter
hM4Di [7] = biological target: T1, hM4Di; format: in vivo; parameters: host or cells: rat (Sprague-Dawley) primary motor cortex neurons transduced in vivo with AAV5, Camk2a promoter; conditions: tetanus toxin model; CNO 1 mg/kg i.p. twice at 2-hour interval, 3.5 hour window, vs vehicle; P=0.028 Wilcoxon
hM3Dq = hM3Dq (Homo sapiens, UniProt P20309, A239G/Y149C); conditions: cited from earlier work
Sequence of hM3Dq (P20309 whole entry Y149C/A239G): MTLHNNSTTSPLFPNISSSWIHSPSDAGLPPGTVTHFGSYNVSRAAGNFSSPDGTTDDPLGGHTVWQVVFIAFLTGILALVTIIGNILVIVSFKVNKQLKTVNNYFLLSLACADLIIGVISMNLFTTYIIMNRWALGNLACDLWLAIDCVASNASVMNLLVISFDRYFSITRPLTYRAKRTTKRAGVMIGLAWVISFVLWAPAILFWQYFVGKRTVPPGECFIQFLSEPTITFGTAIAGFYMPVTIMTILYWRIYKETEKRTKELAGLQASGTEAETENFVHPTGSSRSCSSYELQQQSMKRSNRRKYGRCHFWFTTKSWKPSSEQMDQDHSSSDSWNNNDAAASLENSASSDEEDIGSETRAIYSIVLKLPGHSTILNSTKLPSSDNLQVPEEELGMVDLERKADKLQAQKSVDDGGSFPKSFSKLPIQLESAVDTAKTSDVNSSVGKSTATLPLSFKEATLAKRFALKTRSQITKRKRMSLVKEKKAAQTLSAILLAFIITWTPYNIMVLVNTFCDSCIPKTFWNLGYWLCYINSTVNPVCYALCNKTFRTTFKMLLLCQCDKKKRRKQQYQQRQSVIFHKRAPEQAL

| Compound | activation of DREADD receptors [1] | duration of effect on neurons transduced with hM4Di or its excitatory analog [2] | time to full clearance ([2]; rat, in vivo) | half-life [3] | duration of seizure suppression / CNO present in the brain (hM4Di [4]; following a single intraperitoneal injection) | tolerability of the treatment (hM4Di [4]; hM4Di expression plus systemic CNO) | electrographic and motor convulsions (hM4Di [5]) | mean 4-14 Hz power (hM4Di [5]) | mean frequency of negative deflections in the EEG (hM4Di [5]) | number of IF runs that correlate with severe motor seizures (hM4Di [5]) | pilocarpine-triggered seizures (hM4Di [5]) | time to significant reduction in seizure severity after CNO administration (hM4Di [5]) | time to significant reduction in seizure severity after CNO administration (hM4Di [6]; picrotoxin (FIG. 2e)) | attenuation of IF activity (hM4Di [6]; picrotoxin, IF activity correlated with more severe motor seizures) | electrographic discharges (hM4Di [6]; rats with hM4Di AAV in M1, CNO i.p. immediately after focal picrotoxin, vs vehicle) | coastline (hM4Di [7]) | frequency of epileptiform bursts (hM4Di [7]) | high-frequency power (hM4Di [7]) | binding to hM3Dq (hM3Dq) |
| --- | --- | --- | --- | --- | --- | --- | --- | --- | --- | --- | --- | --- | --- | --- | --- | --- | --- | --- | --- |
| C[N+]1([O-])CCN(C2=Nc3cc(Cl)ccc3Nc3ccccc32)CC1 [CNO, clozapine-N-oxide] | readily activated | at least 90 minutes | ≤ 12 h | 7 to 8 h | 45 to 60 min | well tolerated | substantially reduced | significant decrease | significant decrease | significant decrease | profoundly suppressed | ≤ 10 min | ≤ 10 min | especially marked | attenuated | significantly attenuated | significantly attenuated | significantly attenuated |  |
| CN1CCN(C2=Nc3ccccc3Cc3ccccc32)CC1 [perlapine] |  |  |  |  |  |  |  |  |  |  |  |  |  |  |  |  |  |  | binds |
